In ChEMBL document CHEMBL2346588, “Design, synthesis, and biological activity of diaryl ether inhibitors of Toxoplasma gondii enoyl reductase” (Bioorg Med Chem Lett, 2013):
In brackets after ≈: the same amount, converted by molar mass. Activity calls are given as the source filed them. The rule behind the calls is not given here.

Key:
Toxoplasma gondii [1] = test: Antiparasitic activity against Toxoplasma gondii type 1 RH expressing YFP infected in HFF assessed as inhibition of [3H]-uracil incorporation after 72 hrs by liquid scintillation counting; format: functional
[2] = biological target: T1, Enoyl-acyl carrier reductase (Toxoplasma gondii) (UniProt Q6UCJ9); test: Inhibition of Toxoplasma gondii enoyl reductase assessed as conversion of trans-2-acyl-ACP to acyl-ACP at 1 uM
T1 sequence (whole entry): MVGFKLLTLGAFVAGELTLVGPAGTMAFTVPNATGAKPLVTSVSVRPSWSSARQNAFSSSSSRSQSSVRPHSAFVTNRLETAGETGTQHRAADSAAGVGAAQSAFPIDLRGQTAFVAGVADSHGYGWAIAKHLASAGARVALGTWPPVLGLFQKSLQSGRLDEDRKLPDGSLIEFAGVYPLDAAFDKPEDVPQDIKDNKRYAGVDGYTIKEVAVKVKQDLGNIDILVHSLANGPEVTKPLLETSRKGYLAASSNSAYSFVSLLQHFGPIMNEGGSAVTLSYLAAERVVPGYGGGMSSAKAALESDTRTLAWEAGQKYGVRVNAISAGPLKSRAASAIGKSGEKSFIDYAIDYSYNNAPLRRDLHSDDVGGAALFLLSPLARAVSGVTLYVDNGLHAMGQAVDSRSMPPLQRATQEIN

HFF = test: Cytotoxicity against HFF assessed as inhibition of [3H]-thymidine incorporation after 24 hrs by […] assay; format: cell-based; conditions: human
[3] = biological target: T2, Enoyl-acyl carrier reductase (Toxoplasma gondii, UniProt Q6UCJ9); test: Inhibition of Toxoplasma gondii enoyl reductase assessed as conversion of trans-2-acyl-ACP to acyl-ACP
T2 sequence (Q6UCJ9 whole entry): T1 sequence (whole entry)

Toxoplasma gondii [4] = test: Antiparasitic activity against Toxoplasma gondii infected in BALB/c mouse assessed as reduction of parasite burden at 25 mg/kg, ip qd for 5 days; format: functional, organism-based; design: dose 25 mg/kg
Plasmodium falciparum [5] = test: Antimalarial activity against Plasmodium falciparum D6 after 24 hrs by SYBR Green I based fluorescence assay; format: functional, organism-based; conditions: D6, 24 h
Mus musculus = test: Toxicity in Toxoplasma gondii infected BALB/c mouse assessed mortality at 75 mg/kg, ip qd for 5 days measured 7 day after infection; format: organism-based; design: dose 75 mg/kg, route intraperitoneal; conditions: in vivo, 168 h
Plasmodium falciparum [6] = test: Antimalarial activity against chloroquine-resistant Plasmodium falciparum TM91C235 after 24 hrs by SYBR Green I based fluorescence assay; format: functional, organism-based; conditions: TM91C235, 24 h
Toxoplasma gondii [7] = test: Antiparasitic activity against Toxoplasma gondii infected in BALB/c mouse assessed as reduction of parasite burden at 50 mg/kg, ip qd for 5 days; format: functional, organism-based; design: dose 50 mg/kg

O=C(O)c1ccc(Oc2ccc(Cl)cc2O)s1
MIC50 (Toxoplasma gondii [1]): 10 µM (≈ 2.71 µg/mL) | inhibition [2]: 48% | INH (HFF): > 10 µM

CNC(=O)c1ccc(Oc2ccc(Cl)cc2O)o1
MIC50 (Toxoplasma gondii [1]): > 10 µM | inhibition [2]: 46% | INH (HFF): > 10 µM

Cn1cc(C(=O)Nc2ccc(Cl)cc2O)c(C(F)(F)F)n1
MIC50 (Toxoplasma gondii [1]): > 10 µM | inhibition [2]: 27% | INH (HFF): > 10 µM

CC(=O)N1CCN(C(=O)c2ccc(Oc3ccc(Cl)cc3O)o2)CC1
MIC50 (Toxoplasma gondii [1]): > 10 µM | inhibition [2]: 45% | INH (HFF): > 10 µM

CC(=O)N1CCN(Cc2ccc(Oc3ccc(Cl)cc3O)s2)CC1
IC50 [3]: 965 nM | MIC50 (Toxoplasma gondii [1]): 5 µM (≈ 1.83 µg/mL) | inhibition [2]: 73% | INH (HFF): > 10 µM

Oc1cc(Cl)ccc1Oc1ccc(Cl)cc1Cl [TRICLOSAN]
MIC50 (Toxoplasma gondii [1]): 5 µM (≈ 1.45 µg/mL) | Activity (Toxoplasma gondii [4]): Active | INH (HFF): > 10 µM

CN1CCN(c2ccc(Oc3ccc(Cl)cc3O)cc2)CC1
inhibition [2]: 25% | INH (HFF): > 10 µM

O=C(c1ccc(Oc2ccc(Cl)cc2O)s1)N1CCNCC1
MIC50 (Toxoplasma gondii [1]): > 10 µM | inhibition [2]: 60% | INH (HFF): > 10 µM

Oc1cc(Cl)ccc1Oc1ccc(N2CCOCC2)cc1
MIC50 (Toxoplasma gondii [1]): > 10 µM | inhibition [2]: 74% | INH (HFF): > 10 µM

CCNC(=O)c1ccc(Oc2ccc(Cl)cc2O)s1
inhibition [2]: 75% | INH (HFF): 10 µM

Oc1cc(Cl)ccc1Oc1ccc2ncccc2c1
IC50 [3]: 135 nM | MIC50 (Toxoplasma gondii [1]): 7.5 µM (≈ 2.04 µg/mL) | inhibition [2]: 87% | INH (HFF): > 10 µM

Cc1cc(NC(=O)c2ccc(Oc3ccc(Cl)cc3O)o2)no1
IC50 [3]: 58 nM | MIC50 (Toxoplasma gondii [1]): 10 µM (≈ 3.35 µg/mL) | inhibition [2]: 90% | INH (HFF): > 10 µM

Oc1cc(Cl)ccc1Oc1ccc(C(F)(F)F)cc1Cl
IC50 [3]: 30 nM | MIC50 (Toxoplasma gondii [1]): 4 µM (≈ 1.29 µg/mL) | inhibition [2]: 95% | INH (HFF): > 10 µM

CC(=O)N1CCN(c2ccc(Oc3ccc(Cl)cc3O)cc2)CC1
IC50 (Plasmodium falciparum [5]): > 10 µg/mL | IC50 [3]: 225 nM | MIC50 (Toxoplasma gondii [1]): 1.5 µM (≈ 0.52 µg/mL) | Activity (Mus musculus): Toxic | IC50 (Plasmodium falciparum [6]): > 10 µg/mL | inhibition [2]: 81% | INH (HFF): > 10 µM | Activity (Toxoplasma gondii [7]): inactive

O=C(O)c1ccc(Oc2ccc(Cl)cc2O)o1
MIC50 (Toxoplasma gondii [1]): > 10 µM | inhibition [2]: 79% | INH (HFF): > 10 µM

CN1CCN(Cc2ccc(Oc3ccc(Cl)cc3O)cc2)CC1
MIC50 (Toxoplasma gondii [1]): > 10 µM | inhibition [2]: 32% | INH (HFF): > 10 µM

O=S(=O)(c1ccc(Oc2ccc(Cl)cc2O)cc1)N1CCCCC1
MIC50 (Toxoplasma gondii [1]): 10 µM (≈ 3.68 µg/mL) | inhibition [2]: 81% | INH (HFF): > 10 µM

CC(C)(C)OC(=O)N1CCN(C(=O)c2ccc(Oc3ccc(Cl)cc3O)s2)CC1
MIC50 (Toxoplasma gondii [1]): > 10 µM | inhibition [2]: 76% | INH (HFF): > 10 µM

O=S(=O)(c1ccc(Oc2ccc(Cl)cc2O)cc1)N1CCCC1
MIC50 (Toxoplasma gondii [1]): 10 µM (≈ 3.54 µg/mL) | inhibition [2]: 78% | INH (HFF): > 10 µM

Oc1cc(Cl)ccc1Oc1ccc2ccccc2c1
IC50 [3]: 41 nM | MIC50 (Toxoplasma gondii [1]): 10 µM (≈ 2.71 µg/mL) | inhibition [2]: 91% | INH (HFF): > 10 µM
